Converted amounts (≈) assume the structure as drawn. Peptide text beside a SMILES is read from it.
Columns and labels:
[1] = Reverse phase HPLC retention time (hydrophobicity); format: physicochemical; parameters: unit not given beside the values; settings: C18 column (300 Å pore size, 5 μm particle size), linear gradient acetonitrile/water, higher Rt taken as more hydrophobic
Text: Materials: LPS of E. coli 0111:B4, FITC-LPS of E. coli 055:B5, acrylamide, NPN (1-N-phenylnaphthylamine) were purchased from Sigma (Saint Louis, MO, USA). All bacterial strains were obtained from the American Type Culture Collection (Manassas, VA, USA). Designed peptides were synthesized commercially by GL Biochem (Shanghai, China) and further purified by a reverse phase HPLC (Waters), using a C18 column (300 Å pore size, 5 μm particle size). The dimeric variants of β-boomerang lipopeptides were treated with 20% DMSO for 18 hours and the oxidized peptides were further purified by HPLC. A linear gradient of acetonitrile/water mixture was used for the purification and fractions eluting with higher purity were collected and freeze-dried.
(§1) In addition, incorporation of disulfide bridges in AMPs may stabilize conformations and enhance cationicity and hydrophobicity required for enhanced activity. […] Residue Ile10 was chosen for Cys replacement since this residue is located at the exposed face of the β-strand of the YI12WF structure (Figure 1).

[2] = system: E. coli cells; experiment: Zeta potential measurements; format: cell-based
Protocol: Zeta potential measurements: The zeta potential measurements were carried out on a Zetasizer Nano ZS (Malvern Instruments, Worcestershire, UK) equipped with a 633 nm He lasers. Mid-log phase grown bacterial cells were diluted to an OD600 of 0.2 and a basal measurement in the absence of peptides was acquired in disposable zeta cells with gold electrodes. Increasing concentrations of the designed peptides were then added to the cells and the measurements were made. A total of five measurements of 100 runs each were carried out for all dilutions.

[3] = system: outer membrane of E. coli cells; experiment: Outer membrane permeability assay (NPN dye); format: cell-based; settings: E. coli OD600 0.5, 10 μM NPN
Protocol: Outer membrane permeability assay: Outer membrane of Gram bacteria acts as permeability barrier for hydrophobic antibacterial compounds. […] E. coli cells were grown to mid logarithmic phase and diluted to an OD600nm of 0.5 in 10 mM sodium phosphate buffer, pH 7.0. The excitation was set at 350 nm and emission at 390–450 nm. NPN was added to the diluted cells at the concentration of 10 μM and a basal fluorescence was recorded followed by the addition of increasing concentration of peptides.

[4] = system: FITC-LPS micelles; experiment: Dissociation of FITC-LPS; parameters: species or system E. coli 055:B5; settings: 500 nM FITC-LPS, increasing peptide, excitation 480 nm, emission 515 nm
Protocol: Dissociation of FITC-LPS: LPS molecules form micellar aggregates in water. The competency of the peptides to dissociate LPS micelles were studied using FITC conjugated LPS. In this method, blank fluorescence of 500 nM of FITC-LPS was recorded followed by the addition of increasing concentrations of peptides. The excitation was set at 480 nm and emission at 500–550 nm.

[5] = system: LPS micelles; experiment: Dynamic light scattering of LPS micelles; parameters: species or system E. coli 0111:B4; settings: DLS, 0.5 μM LPS, LPS:peptide 1:4; LPS alone 814 nm
Protocol: Dynamic light scattering measurements: LPS forms micelles of large sizes, which with the addition of increasing concentration of peptides, dissociates to smaller sizes. DLS measurements were made for 0.5 μM LPS and then with LPS: Peptide ratios of 1:2 and 1:4. The scattering was measured with Dynamic Light Scattering software provided with the instrument (Brookhaven Instruments Corp., Holtsville, NY, USA) and the scattering data was analyzed with CONTIN method.

[6] = system: LPS micelles; experiment: Isothermal titration calorimetry; format: binding, E. coli 0111:B4; settings: lack of saturation
Protocol: Isothermal titration calorimetry: Binding of designed peptides with LPS micelles was determined using isothermal titration calorimetry in VP-ITC micro calorimeter (Microcal Inc, Northampton, MA, USA). Peptides and LPS samples were dissolved in 10 mM phosphate buffer, pH 7.0 and filtered. LPS at a concentration of 10 μM was loaded into the sample cell and the reference cell was filled with the same buffer. The syringe was filled with 1mM peptide solution. Typically 30 injections of 3.5 μL of the peptides were made into the sample cell at 25 °C. Sample cell was stirred continuously at 300 rpm. Raw data were obtained and analyzed using single site binding model in Microcal Origin 5.0 software. Association constant (Ka) and enthalpy change (ΔH) were directly determined from ITC profiles. Dissociation constant was calculated from Kd = 1/Ka. ΔG and TΔS were estimated from the fundamental equations of thermodynamics, ΔG = −RTlnKa and TΔS = (ΔH − ΔG), respectively.

[7] = aqueous solution for NMR
Text: as §1
The solution conformations of YI13C, C4YI13C peptides were examined in free solution using two-dimensional ^1H-^1H NOESY and TOCSY experiments.

[8] = system: B.subtilis (Lab strain); experiment: Antibacterial assay (MIC); format: cell-based; settings: 10 mM phosphate buffer pH 6.8, 3 h 37 °C, streaked on Mueller-Hinton agar
Protocol: (§2) Antibacterial assay: The minimum inhibitory concentration (MIC) of the designed peptides was determined against four Gram-negative strains (E. coli, P. aeruginosa ATCC 27853, K. pneumoniae ATCC 13883, S. enterica ATCC 14028) and four Gram-positive strains (B. subtilis, S. aureus ATCC 25923, S. pyogenes ATCC 19615 and E. faecalis ATCC 29212). In brief, mid logarithmic phase of overnight grown bacterial cultures were obtained in LB broth and adjusted to OD600 0.2 in 10 mM phosphate buffer, pH 6.8. About 50 μL of these cells were added to equal volume of designed peptides at two-fold dilutions in 96-well sterile polypropylene plates followed by incubation for 3hrs at 37 °C. Aliquots of the above titrated wells were streaked onto Mueller-Hinton agar plates and the concentration at which no visible bacterial growth was observed considered as the MIC value of the peptide.

[9] = system: E.coli (Lab strain); experiment: Antibacterial assay (MIC); format: cell-based; settings: 10 mM phosphate buffer pH 6.8, 3 h 37 °C, streaked on Mueller-Hinton agar, no visible growth
Protocol: as §2

[10] = system: E.faecalis (ATCC 29212); experiment: Antibacterial assay (MIC); format: cell-based; settings: 10 mM phosphate buffer pH 6.8, 3 h 37 °C, streaked on Mueller-Hinton agar
Protocol: as §2

[11] = system: K. pneumoniae (ATCC 13883); experiment: Antibacterial assay (MIC); format: cell-based; settings: 10 mM phosphate buffer pH 6.8, 3 h 37 °C, streaked on Mueller-Hinton agar
Protocol: as §2

[12] = system: P.aeruginosa (ATCC 27853); experiment: Antibacterial assay (MIC); format: cell-based; settings: 10 mM phosphate buffer pH 6.8, 3 h 37 °C, streaked on Mueller-Hinton agar
Protocol: as §2

[13] = system: S.aureus (ATCC 25923); experiment: Antibacterial assay (MIC); format: cell-based; settings: 10 mM phosphate buffer pH 6.8, 3 h 37 °C, streaked on Mueller-Hinton agar
Protocol: as §2

[14] = system: S.enterica (ATCC 14028); experiment: Antibacterial assay (MIC); format: cell-based; settings: 10 mM phosphate buffer pH 6.8, 3 h 37 °C, streaked on Mueller-Hinton agar
Protocol: as §2

[15] = system: S.pyogenes (ATCC 19615); experiment: Antibacterial assay (MIC); format: cell-based; settings: 10 mM phosphate buffer pH 6.8, 3 h 37 °C, streaked on Mueller-Hinton agar
Protocol: as §2

[16] = system: red blood cells; settings: mouse RBC ~4% (v/v) in PBS pH 7.0, 1 h, OD540, 1% Triton-X = positive control
Protocol: Hemolytic assay: Blood was collected from healthy mice in a tube containing EDTA. Cells with EDTA were centrifuged at 800 g for 10 min, to remove the buffy plasma coat layer, and washed three times in PBS (35 mM phosphate buffer, 150 mM NaCl, pH 7.0). 50 μL of RBC solution was added to equal volume of two-fold dilution of the peptides in 96-well micro titer plates and incubated for one hour. The final erythrocyte concentration estimated to be ~4% (v/v). After one hour, the mixture was centrifuged and the release of hemoglobin in the supernatant was determined spectrophotometrically at OD540. Buffer and 1% Triton-X in the place of peptides used as negative control and positive control, respectively. The percentage of hemolysis was calculated using the following method: Percentage of hemolysis = (OD peptide − OD buffer)/(OD Triton-X-OD buffer) × 100

[17] = system: LPS (endotoxin); experiment: LPS neutralization assay (chromogenic LAL kit); format: biochemical
Protocol: LPS neutralization assay: LAL chromogenic kit (QCL 100 Cambrex, Walkersville, MD, USA) was used to determine endotoxin neutralization of the designed peptides following protocol of the vendor. LPS in Gram negative bacteria activates a proenzyme in limulus amoebocyte lysate (LAL). This activated enzyme in turn catalytically release a colored product pNA from the colorless substrate Ac-Ile-Glu-Ala-Arg-pNA which is detected spectrophotometrically at OD410. All peptides were dissolved in the pyrogen-free water supplied with the kit and pH was adjusted to 7.0 with 1N HCl or 1N NaOH (which is prepared in pyrogen-free water). The increasing concentrations of the peptides were incubated with three different concentrations of endotoxins, i.e., at 0.4, 0.8 and 1.0 endotoxin units (EU) in a total volume of 50 μL for 30 minutes at 37 °C. About 50 μL of LAL reagent was added to peptide-LPS complex and further incubated for 10 minutes followed by addition of 100 μL substrate. After incubation of six minutes for the reaction, the release of colored product was recorded at OD410. Water in the place of peptides served as negative control (blank) that is considered as 0% inhibition and percentage of LPS neutralization was calculated by: % of LPS neutralization = [(OD blank − OD peptide)/OD blank] × 100

Compound	Retention time (Rt) [1]	Change in zeta potential (in words) ([2]; increasing peptide concentrations, E. coli cells)	NPN fluorescence intensity with increasing peptide (in words) [3]	FITC fluorescence intensity / dissociation of FITC-LPS (in words) [4]	Diameter of LPS aggregates [5]	Interaction with LPS by ITC (in words) [6]	Solubility for NMR studies (in words) [7]	Minimum inhibitory concentration (MIC) [8]	Minimum inhibitory concentration (MIC) [9]	Minimum inhibitory concentration (MIC) [10]	Minimum inhibitory concentration (MIC) [11]	Minimum inhibitory concentration (MIC) [12]	Minimum inhibitory concentration (MIC) [13]	Minimum inhibitory concentration (MIC) [14]	Minimum inhibitory concentration (MIC) [15]	% of hemolysis at 50 μM peptide concentration [16]	LPS neutralization ([17]; 0.4 EU endotoxin, 1.0 μM peptide, 30 min 37 °C, OD410)	LPS neutralization ([17]; at increased peptide concentration, different LPS concentrations (0.4, 0.8, 1.0 EU), dose dependent)	Zeta potential of E. coli cells after peptide addition ([2]; 4 μM peptide, cells without peptide about −20.0 mV, OD600 0.2)
CCCCCCCC(=O)N[C@@H](Cc1ccc(O)cc1)C(=O)N[C@H](C(=O)N[C@@H](CC(C)C)C(=O)N[C@@H](C)C(=O)N[C@@H](CCCCN)C(=O)N[C@@H](CCCNC(=N)N)C(=O)N[C@@H](CCCCN)C(=O)N[C@@H](CCCNC(=N)N)C(=O)N[C@@H](CCCCN)C(=O)N[C@@H](C)C(=O)N[C@@H](CSSC[C@H](NC(=O)[C@H](C)NC(=O)[C@H](CCCCN)NC(=O)[C@H](CCCNC(=N)N)NC(=O)[C@H](CCCCN)NC(=O)[C@H](CCCNC(=N)N)NC(=O)[C@H](CCCCN)NC(=O)[C@H](C)NC(=O)[C@H](CC(C)C)NC(=O)[C@@H](NC(=O)[C@H](Cc1ccc(O)cc1)NC(=O)CCCCCCC)C(C)C)C(=O)N[C@@H](Cc1ccccc1)C(=O)N[C@H](C(N)=O)[C@@H](C)CC)C(=O)N[C@@H](Cc1ccccc1)C(=O)N[C@H](C(N)=O)[C@@H](C)CC)C(C)C [C8YI13CAA] (HELM PEPTIDE1{[CCCCCCCC(=O)[*:2]].Y.V.L.A.K.R.K.R.K.A.C.F.I.[am]}|PEPTIDE2{[CCCCCCCC(=O)[*:2]].Y.V.L.A.K.R.K.R.K.A.C.F.I.[am]}$PEPTIDE1,PEPTIDE2,12:R3-12:R3$$$V2.0; N-terminus and C-terminus assumed)	32.38	did not show any detectable change in zeta potential	no marked increase in intensity	remained unchanged	630 nm	interacted weakly with LPS	limited solubility												
CCCCCCCC(=O)N[C@@H](Cc1ccc(O)cc1)C(=O)N[C@H](C(=O)N[C@@H](CC(C)C)C(=O)N[C@@H](Cc1c[nH]c2ccccc12)C(=O)N[C@@H](CCCCN)C(=O)N[C@@H](CCCNC(=N)N)C(=O)N[C@@H](CCCCN)C(=O)N[C@@H](CCCNC(=N)N)C(=O)N[C@@H](CCCCN)C(=O)N[C@@H](Cc1ccccc1)C(=O)N[C@@H](CSSC[C@H](NC(=O)[C@H](Cc1ccccc1)NC(=O)[C@H](CCCCN)NC(=O)[C@H](CCCNC(=N)N)NC(=O)[C@H](CCCCN)NC(=O)[C@H](CCCNC(=N)N)NC(=O)[C@H](CCCCN)NC(=O)[C@H](Cc1c[nH]c2ccccc12)NC(=O)[C@H](CC(C)C)NC(=O)[C@@H](NC(=O)[C@H](Cc1ccc(O)cc1)NC(=O)CCCCCCC)C(C)C)C(=O)N[C@@H](Cc1ccccc1)C(=O)N[C@H](C(N)=O)[C@@H](C)CC)C(=O)N[C@@H](Cc1ccccc1)C(=O)N[C@H](C(N)=O)[C@@H](C)CC)C(C)C [C8YI13C] (HELM PEPTIDE1{[CCCCCCCC(=O)[*:2]].Y.V.L.W.K.R.K.R.K.F.C.F.I.[am]}|PEPTIDE2{[CCCCCCCC(=O)[*:2]].Y.V.L.W.K.R.K.R.K.F.C.F.I.[am]}$PEPTIDE1,PEPTIDE2,12:R3-12:R3$$$V2.0)	37.40		continues to increase		385 nm		limited solubility	5 µM (≈ 19.1 µg/mL)	3 µM (≈ 11.5 µg/mL)	4 µM (≈ 15.3 µg/mL)	12 µM (≈ 45.9 µg/mL)	5 µM (≈ 19.1 µg/mL)	5 µM (≈ 19.1 µg/mL)	50 µM (≈ 191 µg/mL)	50 µM (≈ 191 µg/mL)	21.5%	around 60%	80%	~+24.0 mV

Reference: publication PMC4014704, “β-Boomerang Antimicrobial and Antiendotoxic Peptides: Lipidation and Disulfide Bond Effects on Activity and Structure” (Pharmaceuticals, 2014)
